# Results published in PMC6701825, “Antiproliferative and Antimigratory Effects of a Novel YAP–TEAD Interaction Inhibitor Identified Using in Silico Molecular Docking” (Journal of Medicinal Chemistry, 2019).
# How the values were obtained:
# [1] = target: T1, recombinant TEAD1 (residues 194-411) (Homo sapiens, UniProt P28347); assay: Saturation transfer difference (STD) NMR binding to TEAD1; settings: 2 mM CPD3.1, approximately 20 μM TEAD1
# T1 construct: TEAD1 protein (residues 194–411) was prepared by solution cleavage of the GST tag; GST (N, cleaved yes); made in house; host or cells: SoluBL21 Escherichia coli
# Description: Figure 6 Saturation transfer difference (STD) NMR analysis of compound 3.1 binding to TEAD1. Saturation-Transfer Difference (STD) NMR spectra showing the binding of CPD3.1 to recombinant TEAD1. (A) reference 1H NMR spectra of a mixture of CPD3.1 and TEAD1. (B) and (C) show the STD spectra of CPD3.1 in the absence and presence of TEAD1. The asterisk indicates buffer components or impurities in the sample. The three spectra were recorded in PBS made up in 40% H2O/60% D2O acquired at 700 MHz. The concentration of CPD3.1 was 2 mM, whereas the final concentration of TEAD1 was approximately 20 μM.
# Binding of compounds to human TEAD was performed using STD NMR analysis. Briefly, TEAD1 protein (residues 194–411) was prepared by solution cleavage of the GST tag from recombinant GST–TEAD1 (194–411). GST–TEAD1 protein was eluted from glutathione beads by 40 mM reduced glutathione. GST tag was removed by incubation with PreScission protease (Sigma-Aldrich) at 4 °C for 18 h. Glutathione was removed by dialysis against 1000 volumes of 1× PBS at 4 °C for 4 h. Free GST protein was removed by incubation with glutathione resin. All NMR spectroscopy experiments were performed on a Bruker Avance III HD 700 MHz spectrometer equipped with a 1.7 mm inverse triple-resonance microcryocoil probe. NMR samples were prepared in 40 μL with PBS pH 7.4 in 60% D2O (uncorrected for D2O). […]
# [2] = target: T2, binding of endogenous YAP protein to recombinant GST-TEAD1 (Homo sapiens, UniProt P28347); assay: In vitro GST-TEAD1-YAP interaction (pull-down) assay; settings: 200 μM compound, HEK293 lysate, 18 h at 4 °C, Western blot
# T2 construct: human TEAD1 (corresponding to residues 194–411); made in house; host or cells: SoluBL21 Escherichia coli (GST-TEAD1); HEK293 lysate (endogenous YAP)
# Text: We next tested the ability of these four compounds to inhibit the binding of endogenous YAP protein present in HEK293 whole cell lysate to recombinant glutathione S-transferase (GST)–TEAD1 protein immobilized on glutathione resin beads. […] Inhibition of YAP binding to TEAD1 in the presence of CPD3 was further confirmed using co-immunoprecipitation assays using mammalian cell lysates prepared from HeLa expressing myc-TEAD1 and GFP–YAP. […] We next set up a 96-well plate-based YAP–TEAD interaction assay to determine the IC50 of the inhibition of the YAP–TEAD complex by CPD3.
# The DNA fragment encoding human TEAD1 (corresponding to residues 194–411) was amplified by polymerase chain reaction (PCR) and cloned into the BamH1 and EcoR1 sites of vector pGEX-6P1, in frame with the terminal GST tag. GST–TEAD1 fusion protein expression was induced in SoluBL21s Escherichia coli by culture at 25 °C in the presence of 0.2 mM IPTG for 18 h. […] Bound proteins were eluted by boiling in Laemmli sample buffer and YAP and GST–TEAD levels quantified by Western blotting with an anti-YAP antibody (Cell Signaling; #4912) and an anti-GST antibody (Cell Signaling; #5475S).
# T1 sequence (P28347 209-426): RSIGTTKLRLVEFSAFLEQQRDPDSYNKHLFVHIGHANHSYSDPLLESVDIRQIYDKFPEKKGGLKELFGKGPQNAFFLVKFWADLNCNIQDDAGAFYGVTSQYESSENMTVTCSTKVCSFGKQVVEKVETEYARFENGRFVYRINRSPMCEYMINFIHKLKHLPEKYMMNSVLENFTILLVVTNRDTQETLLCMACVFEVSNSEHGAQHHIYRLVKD
# T2 sequence (P28347 209-426): as above
Structure (SMILES),binding to purified recombinant TEAD protein (STD NMR) [1],inhibition of binding of YAP protein to GST-TEAD1 [2]
Cc1ccc2c(c1)c1c3n2CCNC3CCC1 (centres unmarked) [CPD3.1],confirmed,
Cc1ccc2c(c1)c1c3n2CCN(CC(O)CN2CCN(C(=O)c4ccco4)CC2)C3CCC1 (centres unmarked) [CPD3],,inhibit the binding of YAP protein
